Measured values as given in ChEMBL document CHEMBL3137667, “[Drug-induced liver injury; fourteenth updated edition of the bibliographic database of liver injuries and related drugs]” (Gastroenterol Clin Biol, 2004).

How the values were obtained:
[1] = human, serum
[2] = human
[3] = human; remark: listed apart in the source
[4] = human; remark: listed apart in the source
[5] = human; remark: listed apart in the source
[6] = human; remark: listed apart in the source
[7] = Highest frequency of moderate liver toxicity observed during clinical trials, expressed as a percentage. [column '% BIOL' in source]; details: human
[8] = human; remark: listed apart in the source
[9] = Times to onset, minimal and maximal, observed in the indexed observations. [column 'DELAI' in source]; details: human
[10] = human; remark: listed apart in the source
[11] = Presence of at least one case with successful reintroduction. [column 'REINT' in source]; details: human
[12] = human; remark: listed apart in the source
[13] = human, serum, 4383 h
[14] = human, serum; remark: listed apart in the source
[15] = human; remark: listed apart in the source
[16] = Highest frequency of acute liver toxicity observed during clinical trials, expressed as a percentage. [column '% AIGUE' in source]; details: human
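Wherever Hepatotoxicity (association with vascular disease) is given: count of indexed literature references reporting vascular liver injury in humans, e.g. peliosis hepatitis, hepatic veno-occlusive disease or Budd-Chiari syndrome.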
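Wherever Hepatotoxicity (benign tumour) is given: value is a count of indexed literature references citing a benign tumour confirmed by histopathology.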
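Wherever Hepatotoxicity (choleostasis) is given: human cholestatic liver injury, shown by histopathology or by peak ALT or AST elevation over alkaline phosphatase ratio below 2, value counts indexed literature reports.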
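Wherever Hepatotoxicity (chronic liver disease) is given: chronic liver injury confirmed by histopathology or persistently raised serum aminotransferase activity beyond 6 months, value given as the count of indexed literature references.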
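Wherever Hepatotoxicity (cirrhosis) is given: value is a count of indexed literature references reporting cirrhosis confirmed by histopathology.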
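Wherever Hepatotoxicity (cytolytic) is given: human cytolytic liver injury, shown by histopathology or by a ratio above 5 of peak ALT or AST elevation to alkaline phosphatase elevation, value counts indexed references.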
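Wherever Hepatotoxicity (granulomatous hepatitis) is given: value is a count of indexed literature references reporting granulomatous liver disease confirmed by histopathology.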
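Wherever Hepatotoxicity (malignant tumour) is given: malignant tumour confirmed by histopathology, value gives the count of indexed literature references reporting it.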
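Wherever Hepatotoxicity (severe hepatitis) is given: human clinical data: severe hepatitis, meaning potentially life-threatening liver failure or clinically observed cases, the value counts how many indexed literature references report it.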
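Wherever Hepatotoxicity (steatosis) is given: steatosis confirmed by histopathology, value is the count of indexed references.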

| SMILES | Hepatotoxicity (acute) [1] | Hepatotoxicity (malignant tumour) [2] | Hepatotoxicity (cytolytic) ([3]; Liver) | Hepatotoxicity (severe hepatitis) ([4]; Liver) | Hepatotoxicity (association with vascular disease) [5] | Hepatotoxicity (cirrhosis) [6] | Hepatotoxicity (moderate) ([7]; Liver) | Hepatotoxicity (granulomatous hepatitis) ([8]; Liver) | Hepatotoxicity (time to onset) [9] | Hepatotoxicity (steatosis) [10] | Hepatotoxicity (successful reintroduction) [11] | Hepatotoxicity (chronic liver disease) [13] | Hepatotoxicity (moderate) [14] | Hepatotoxicity (benign tumour) [15] | Hepatotoxicity (cytolytic) [3] | Hepatotoxicity (severe hepatitis) [4] | Hepatotoxicity (moderate) [7] | Hepatotoxicity (granulomatous hepatitis) [8] | Hepatotoxicity (choleostasis) [12] | Hepatotoxicity (acute) [16] | other results |
| --- | --- | --- | --- | --- | --- | --- | --- | --- | --- | --- | --- | --- | --- | --- | --- | --- | --- | --- | --- | --- | --- |
| CN(C)CCCn1c2c(c3ccccc31)CCCCCC2 [IPRINDOLE] | 6 | 0 | 1 | 0 | 0 | 0 | 0% | 0 | 2 weeks - 1 month | 0 | yes | 0 | 1 | 0 |  |  |  |  |  |  | Hepatotoxicity (choleostasis) ([12]; Liver): 6; Hepatotoxicity (acute) ([16]; Liver): 0% |
| Cc1c(Cl)cccc1Nc1ccccc1C(=O)O [TOLFENAMIC ACID] | 2 | 0 |  |  | 0 | 0 |  |  | 6 months | 0 | yes | 0 | 0 | 0 | 1 | 0 | 0% | 0 | 0 | 0% |  |
| O=C(CCCN1CCC(O)(c2ccc(Br)cc2)CC1)c1ccc(F)cc1 [BROMPERIDOL] | 1 | 0 |  |  | 0 | 0 |  |  | 2 weeks - 6 weeks | 0 | yes | 0 | 0 | 0 | 0 | 0 | 0% | 0 | 0 | 0% |  |
| CC[C@]1(O)CC[C@H]2[C@@H]3CCC4=CC(=O)CC[C@@H]4[C@H]3CC[C@@]21C [NORETHANDROLONE] | 11 | 1 |  |  | 3 | 0 |  |  | 2 weeks - 4.5 years | 0 | yes | 0 | 3 | 2 | 0 | 2 | 24% | 0 | 6 | 0% |  |
| O=C(O)COC(=O)Cc1ccccc1Nc1c(Cl)cccc1Cl [ACECLOFENAC] | 3 | 0 |  |  | 0 | 0 |  |  | 1 week - 3 weeks | 0 | yes | 0 | 5 | 0 | 2 | 0 | 3.3% | 0 | 0 | 0% |  |
| CN(C)Cc1ccc(CSCCN/C(=C\[N+](=O)[O-])NCc2ccc3c(c2)OCO3)o1 [NIPEROTIDINE] | 2 | 0 | 2 | 2 | 0 | 0 | 0% | 0 | 15 days - 7 months | 0 | yes | 0 | 0 | 0 |  |  |  |  |  |  | Hepatotoxicity (choleostasis) ([12]; Liver): 2; Hepatotoxicity (acute) ([16]; Liver): 0% |
